Source: PubChem BioAssay (NCI)
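Step 1: Grow cells in 96-well plates. Step 2: Expose to compound for 48 hours at 5 concentrations. Step 3: Interpolate endpoints linearly; if unreached, use highest concentration. The concentration for 50% growth inhibition is given as GI50. TGI: total growth inhibition.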

Legend:
Experiment in all cases: DTP human tumour cell line panel, 48 h
[1] = system: SN12C renal
[2] = system: M19-MEL melanoma
[3] = system: U251 CNS
[4] = system: NCI-H23 lung
[5] = system: KM12 colon
[6] = system: MOLT-4 leukemia
[7] = system: KM20L2 colon
[8] = system: K-562 leukemia
[9] = system: SK-MEL-28 melanoma
[10] = system: NCI-H460 lung
[11] = system: SF-268 CNS
[12] = system: LOX IMVI melanoma
[13] = system: RXF 393 renal
[14] = system: MALME-3M melanoma
[15] = system: OVCAR-5 ovarian
[16] = system: OVCAR-4 ovarian
[17] = system: SF-539 CNS
[18] = system: CAKI-1 renal
[19] = system: XF 498 CNS
[20] = system: SK-MEL-5 melanoma
[21] = system: UACC-257 melanoma
[22] = system: SK-MEL-2 melanoma
[23] = system: DMS 114 small cell lung
[24] = system: CCRF-CEM leukemia
[25] = system: SNB-78 CNS
[26] = system: SR leukemia
[27] = system: EKVX NSCLC
[28] = system: RPMI-8226 leukemia
[29] = system: COLO 205 colon
[30] = system: OVCAR-8 ovarian
[31] = system: LXFL 529 NSCLC
[32] = system: NCI-H522 lung
[33] = system: NCI-H226 lung
[34] = system: OVCAR-3 ovarian
[35] = system: HCT-116 colon
[36] = system: HT29 colon
[37] = system: A498 renal
[38] = system: SNB-19 CNS
[39] = system: SF-295 CNS
[40] = system: DMS 273 small cell lung
[41] = system: SNB-75 CNS
[42] = system: HOP-62 NSCLC
[43] = system: HL-60(TB) leukemia
[44] = system: HCT-15 colon
[45] = system: SW-620 colon
[46] = system: ACHN renal
[47] = system: 786-0 renal
[48] = system: M14 melanoma
[49] = system: TK-10 renal
[50] = system: UO-31 renal
[51] = system: A549 NSCLC
[52] = system: SK-OV-3 ovarian
[53] = system: HCC-2998 colon
[54] = system: UACC-62 melanoma
[55] = system: HOP-92 NSCLC
[56] = system: IGROV1 ovarian

## COc1cc(-c2ccc(NC(=O)SCCC(=O)O)cc2OC)ccc1NC(=O)SCCC(=O)O
[1]
  TGI: > 100 µM
[2]
  TGI: > 100 µM
[3]
  TGI: > 100 µM
[4]
  TGI: > 100 µM
[5]
  TGI: > 100 µM
[6]
  TGI: > 100 µM
[7]
  TGI: > 100 µM
[8]
  TGI: > 100 µM
[9]
  TGI: > 100 µM
[10]
  TGI: > 100 µM
[11]
  TGI: > 100 µM
[12]
  TGI: > 100 µM
[13]
  TGI: > 100 µM
[14]
  TGI: > 100 µM
[15]
  TGI: > 100 µM
[16]
  TGI: > 100 µM
[17]
  TGI: > 100 µM
[18]
  TGI: > 100 µM
[19]
  TGI: > 100 µM
[20]
  TGI: > 100 µM
[21]
  TGI: > 100 µM
[22]
  TGI: > 100 µM
[23]
  TGI: > 100 µM
[24]
  TGI: > 100 µM
[25]
  TGI: > 100 µM
[26]
  TGI: > 100 µM
[27]
  TGI: > 100 µM
[28]
  TGI: > 100 µM
[29]
  TGI: > 100 µM
[30]
  TGI: > 100 µM
[31]
  TGI: > 100 µM
[32]
  TGI: > 100 µM
[33]
  TGI: > 100 µM
[34]
  TGI: > 100 µM
[35]
  TGI: > 100 µM
[36]
  TGI: > 100 µM
[37]
  TGI: > 100 µM
[38]
  TGI: > 100 µM
[39]
  TGI: > 100 µM
[40]
  TGI: > 100 µM
[41]
  TGI: > 100 µM
[42]
  TGI: > 100 µM
[43]
  TGI: > 100 µM
[44]
  TGI: > 100 µM
[45]
  TGI: > 100 µM
[46]
  TGI: > 100 µM
[47]
  TGI: > 100 µM
[48]
  TGI: > 100 µM
[49]
  TGI: > 100 µM
[50]
  TGI: > 100 µM
[51]
  TGI: > 100 µM

## COc1cccc(/C=N/[N-]C(N)=O)c1[O-].[Ni+2].[OH3+]
[1]
  TGI: 1.49 µM
[3]
  TGI: 0.816 µM
[4]
  TGI: 0.735 µM
[5]
  TGI: 0.91 µM
[6]
  TGI: 1.58 µM
[7]
  TGI: 2.15 µM
[8]
  TGI: 2.31 µM
[9]
  TGI: 1.72 µM
[10]
  TGI: 1.65 µM
[11]
  TGI: 0.945 µM
[12]
  TGI: 2.15 µM
[13]
  TGI: 0.8 µM
[14]
  TGI: 2.2 µM
[15]
  TGI: 2.55 µM
[16]
  TGI: 1.01 µM
[52]
  TGI: 1.69 µM
[17]
  TGI: 2.28 µM
[18]
  TGI: 2.19 µM
[19]
  GI50: 0.152 µM
  TGI: 0.331 µM
[20]
  TGI: 1.65 µM
[21]
  TGI: 1.52 µM
[22]
  TGI: 1.46 µM
[24]
  TGI: 1.48 µM
[26]
  TGI: 2.64 µM
[27]
  TGI: 2.57 µM
[28]
  TGI: 4.13 µM
[29]
  TGI: 0.291 µM
[30]
  TGI: 1.66 µM
[32]
  TGI: 0.25 µM
[33]
  TGI: 2.11 µM
[34]
  TGI: 0.596 µM
[35]
  TGI: 0.27 µM
[36]
  TGI: 2.07 µM
[37]
  TGI: 3.15 µM
[38]
  TGI: 1.99 µM
[53]
  TGI: 1.02 µM
[39]
  TGI: 2.36 µM
[41]
  TGI: 1.57 µM
[54]
  TGI: 1.35 µM
[42]
  TGI: 2.52 µM
[43]
  GI50: 0.111 µM
  TGI: 0.86 µM
[44]
  TGI: 1.17 µM
[45]
  GI50: 0.135 µM
  TGI: 0.371 µM
[46]
  TGI: 2.07 µM
[47]
  TGI: 0.474 µM
[48]
  TGI: 2.08 µM
[49]
  TGI: 2.74 µM
[50]
  TGI: 2.09 µM
[55]
  TGI: 0.934 µM
[51]
  TGI: 2.27 µM
[56]
  TGI: 0.811 µM
